Structures are written as SMILES. Bounds are passed on as bounds.

The term IC50 denotes the concentration needed to halve the response being measured. What is called Kd is a measure of binding affinity in units of concentration. The low end stands for a tighter complex, the high end for a looser complex.

For one data set, the system named is C4-2B. As to the kind of experiment: 2D CellTiter-Glo cell viability assay. In kind it is cell-based. The procedure: CellTiter-Glo® 2.0 Luminescent cell viability assay reagent was purchased from Promega and 22Rv1, LASCPC-01, C4-2, C4-2B and NCI-H660, DU-145, PC-3 and LNCap cell lines were obtained from ATCC and a clinical core facility at Huntsman Cancer Institute. […] The results of cell viability were obtained and IC50 values were calculated (see Table 5, below) showing sub-micromolar cell killing of these prostate cancer cells.
On the technique in general: In ATP-based viability assays light output follows the ATP content of the culture.

A further data set addresses T1, hERG channel (Homo sapiens, UniProt Q12809).
T1 construct: purchased
Put plainly: Predictor hERG Fluorescence Polarization Assay. In kind it is binding. The text has this: The Predictor™ hERG Fluorescence Polarization Assay Kit was used to perform hERG channel biochemical binding studies in the absence of radioligand. Assay performance was validated with a panel of established hERG channel blockers.

The test system of data set [1] is LASCPC-01 induced neuroendocrine prostate cancer (NEPC) CDX. As to the kind of experiment: In vivo tumor efficacy study 2, LASCPC-01 NEPC CDX. Set-up: species or system Nu/Nu (Balb/c background) mice. The procedure:
Change in animal weight during a study is an additional indicator of tolerability. All animal weights are recorded. Tumor volumes were measured by digital caliper and volume was calculated using the formula [Width^2×Length]/2. All tumor volume measurements are recorded. […] Dose dependent tumor growth inhibition (TGI) was evident by observation.
50 and 80 mg/kg groups had mice drop from study starting on day 5.

For a further data set, the target named is CDK9 (Homo sapiens, UniProt P50750). As to the kind of experiment: DiscoveRx KINOMEscan (KdELECT, scanMAX panel). It is filed as binding. The protocol: CDKs family kinases profiling assays were performed with DiscoveRx Matrix of Kds KINOMEscan (KdELECT) and Reaction Biology using miniaturized radioisotope-based assay platform (^33P). IC50 value estimated based on the best curve fitting available.
CDK9, sequence (P50750 whole entry): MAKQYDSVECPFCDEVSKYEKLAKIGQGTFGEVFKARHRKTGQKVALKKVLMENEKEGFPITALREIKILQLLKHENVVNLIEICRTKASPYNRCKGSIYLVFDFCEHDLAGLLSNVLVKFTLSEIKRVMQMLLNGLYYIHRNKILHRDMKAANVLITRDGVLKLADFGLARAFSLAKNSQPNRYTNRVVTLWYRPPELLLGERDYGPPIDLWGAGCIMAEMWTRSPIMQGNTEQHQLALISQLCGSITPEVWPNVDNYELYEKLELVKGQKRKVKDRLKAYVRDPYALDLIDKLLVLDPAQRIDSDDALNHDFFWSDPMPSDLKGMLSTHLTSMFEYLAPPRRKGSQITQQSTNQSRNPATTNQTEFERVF

For data set [2], the system named is pCDK9, pSer2, N-MYC, C-MYC and MCL-1. As to the kind of experiment: Target modulation in prostate cancer patient samples. In kind it is cell-based. The settings on record: newly diagnosed and resistant prostate cancer patient samples.

T1 sequence (Q12809 whole entry): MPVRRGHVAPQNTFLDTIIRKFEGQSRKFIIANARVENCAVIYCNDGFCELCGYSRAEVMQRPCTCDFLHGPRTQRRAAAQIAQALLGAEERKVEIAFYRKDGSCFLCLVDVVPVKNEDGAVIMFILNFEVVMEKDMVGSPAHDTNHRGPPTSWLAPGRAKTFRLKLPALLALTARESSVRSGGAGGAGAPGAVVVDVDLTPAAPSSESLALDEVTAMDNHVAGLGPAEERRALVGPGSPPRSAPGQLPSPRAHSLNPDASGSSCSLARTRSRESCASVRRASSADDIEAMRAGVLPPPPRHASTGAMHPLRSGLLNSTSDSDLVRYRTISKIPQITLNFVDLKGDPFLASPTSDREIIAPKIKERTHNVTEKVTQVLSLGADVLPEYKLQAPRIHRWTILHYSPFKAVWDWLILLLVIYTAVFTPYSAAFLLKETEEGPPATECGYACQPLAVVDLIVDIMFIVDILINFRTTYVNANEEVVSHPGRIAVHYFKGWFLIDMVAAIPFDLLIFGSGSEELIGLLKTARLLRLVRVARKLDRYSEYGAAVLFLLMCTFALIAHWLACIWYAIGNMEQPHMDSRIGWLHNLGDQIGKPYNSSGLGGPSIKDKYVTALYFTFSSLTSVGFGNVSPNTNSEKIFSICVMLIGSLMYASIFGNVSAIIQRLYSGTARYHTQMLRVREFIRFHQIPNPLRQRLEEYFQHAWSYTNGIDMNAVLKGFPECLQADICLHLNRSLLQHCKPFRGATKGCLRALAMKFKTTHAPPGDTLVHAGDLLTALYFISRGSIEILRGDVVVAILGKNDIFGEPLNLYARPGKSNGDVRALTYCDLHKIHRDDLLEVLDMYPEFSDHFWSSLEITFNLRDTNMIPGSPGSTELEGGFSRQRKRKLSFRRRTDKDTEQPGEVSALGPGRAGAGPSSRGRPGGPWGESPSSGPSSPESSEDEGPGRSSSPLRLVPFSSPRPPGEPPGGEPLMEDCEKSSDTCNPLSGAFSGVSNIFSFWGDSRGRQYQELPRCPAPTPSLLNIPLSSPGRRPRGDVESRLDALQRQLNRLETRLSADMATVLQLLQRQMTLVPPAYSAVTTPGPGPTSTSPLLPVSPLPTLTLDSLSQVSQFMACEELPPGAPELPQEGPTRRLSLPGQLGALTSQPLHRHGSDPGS

With `CC(C)c1c2cc(-c3ccnc(N[C@H]4CC[C@H](N)C4)n3)ccc2nn1C` [Compound I-2, (1S,3S)-[3-[4-(3-isopropyl-2-methylindazol-5-yl)pyrimidin-2-yl]aminocyclopentan-1-yl]-1,3-diamine], the IC50 was 31 nM in the data set with C4-2B (72 h), 31.9 nM with C4-2B (72 hours) and 57800 nM on hERG channel (fluorescence polarization). The hERG activity result at hERG channel was “no hERG activity”. In data set [1] (LASCPC-01, 50 mg/kg group), the “tumor growth inhibition throughout the course of the study” value is > 80%. For the same compound, in data set [1] (LASCPC-01, 50 mg/kg group, early in the study), the “maximal tumor growth inhibition” value was ~100%. In addition, the maximal growth inhibition in data set [1] (LASCPC-01, 80 mg/kg group, day 5) worked out at 117%. For the same compound, the tumor growth entry in data set [1] (LASCPC-01, 30, 50, 65, 80 mg/kg) was “inhibit tumor growth in a dose dependent manner”. In addition, the “activity in scanMAX panel” value at CDK9 (CDK9, 1 μM) stood at 2.7%. The compound also yielded a Kd on CDK9 (CDK9/cyclinT) of 4.2 nM. Moreover, in data set [2], the “pCDK9, pSer2 and downstream N-MYC, C-MYC and MCL-1” value was “reduced”.

The record behind these values is patent US20240150322A1, “CDK9 Inhibitors” (Biolexis Therapeutics, Inc., priority 2022, published 2024).
